Common to all, as to type: cell-based
The target in experiment [1] is Beta-2 adrenergic receptor (Rattus norvegicus) (UniProt P10608). In words: Activation of beta-2 adrenergic receptor in rat L6 cells assessed as enhancement of 2-deoxyglucose uptake at 10 uM preincubated for 4 hrs followed by 2-deoxyglucose addition measured after 20 mins by fluorescence assay in presence of beta-2 selective adrenergic receptor antagonist ICI118551.

The target is the same in experiment [2]. In words: Activation of beta-2 adrenergic receptor in rat L6 cells assessed as enhancement of 2-deoxyglucose uptake preincubated for 4 hrs followed by 2-deoxyglucose addition measured after 20 mins by fluorescence assay.
Experiment [3] has the same target. In words: Activation of beta-2 adrenergic receptor in rat L6 cells assessed as enhancement of 2-deoxyglucose uptake at 10 uM preincubated for 4 hrs followed by 2-deoxyglucose addition measured after 20 mins by fluorescence assay in presence of non-selective beta-adrenergic receptor antagonist propranolol.
For experiment [4] the target is unchanged. In words: Activation of beta-2 adrenergic receptor in rat L6 cells assessed as enhancement of 2-deoxyglucose uptake at 10 uM preincubated for 4 hrs followed by 2-deoxyglucose addition measured after 20 mins by fluorescence assay in presence of AMPK inhibitor dorsomorphin.
Experiment [5] shares this target. In words: Activation of beta-2 adrenergic receptor in rat L6 cells assessed as enhancement of 2-deoxyglucose uptake at 10 uM preincubated for 4 hrs followed by 2-deoxyglucose addition measured after 20 mins by fluorescence assay in presence of PI3K inhibitor LY294002.
The target is the same in experiment [6]. The experiment in a line: Activation of beta-2 adrenergic receptor in rat L6 cells assessed as enhancement of 2-deoxyglucose uptake at 10 uM preincubated for 4 hrs followed by 2-deoxyglucose addition measured after 20 mins by fluorescence assay relative to control.

The source made the active and inactive calls. The calls are words filed in the database; no cut-off is given here.

Beta-2 adrenergic receptor (Rattus norvegicus), sequence (P10608 whole entry, looked up): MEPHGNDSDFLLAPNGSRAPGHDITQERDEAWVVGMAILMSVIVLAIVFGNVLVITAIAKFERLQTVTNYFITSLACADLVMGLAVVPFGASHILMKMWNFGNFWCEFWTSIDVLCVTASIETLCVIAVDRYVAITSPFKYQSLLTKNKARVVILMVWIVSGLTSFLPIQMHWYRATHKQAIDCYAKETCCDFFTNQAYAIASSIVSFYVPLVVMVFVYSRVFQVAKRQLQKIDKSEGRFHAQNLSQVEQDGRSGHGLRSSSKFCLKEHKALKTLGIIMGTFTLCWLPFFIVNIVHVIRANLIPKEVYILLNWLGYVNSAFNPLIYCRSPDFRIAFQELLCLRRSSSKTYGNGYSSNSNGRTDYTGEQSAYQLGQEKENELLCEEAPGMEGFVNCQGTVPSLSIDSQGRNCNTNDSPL

For `OC[C@H]1O[C@@H](Oc2ccc(C[C@@H]3NCCc4cc(O)c(O)cc43)cc2)[C@H](O)[C@@H](O)[C@@H]1O`, the outcome in experiment [1] and in experiment [3] was inactive. Besides, the Activity entry in experiment [2] is “Dose-dependent effect”. The outcome in experiment [4] and in experiment [5] was Active. For the same compound, the fold change (FC) in experiment [6] turned out to be 2.1.

These data come from ChEMBL document CHEMBL3585333, “Higenamine 4'-O-β-d-glucoside in the lotus plumule induces glucose uptake of L6 cells through β2-adrenergic receptor” (Bioorg Med Chem, 2015).
